Measured values: patent US20160262894A1, “TISSUE REPAIR DEVICES AND SCAFFOLDS” (priority 2013, published 2016)

Columns and labels:
[1] = test system: adenosine A2A knockout (A2AKO) mice; assay: in vivo bone formation by MicroCT in adenosine A2A knockout (A2AKO) mice, coated βTCP-HA scaffolds; conditions: 4 weeks post-surgery, CGS21680 10 mM
Excerpt: The remaining scaffold is shown in blue, and the new bone formation is shown in red.

3 mm calvaria defect [2] = conditions: application at the site of the bone defect
Excerpt: In vivo testing in mice: The 3-D scaffolds will be evaluated in a murine model using a 3 mm calvaria defect model.

3 mm calvaria defect [3] = conditions: murine model of calvarial bone regeneration; background statement; cited from earlier work

CCNC(=O)[C@H]1O[C@@H](n2cnc3c(N)nc(NCCc4ccc(CCC(=O)O)cc4)nc32)[C@H](O)[C@@H]1O [CGS21680]
resorption of scaffolds ([1]; compared with dipyridamole-coated scaffolds): greater

OCCN(CCO)c1nc(N2CCCCC2)c2nc(N(CCO)CCO)nc(N3CCCCC3)c2n1 [dipyridamole]
new bone growth at the site of a bone defect (3 mm calvaria defect [2]): promotes new bone growth | new bone formation ([1]; collagen-coated βTCP-HA scaffolds, Dipyridamole 100 μM): did not differ from that induced in saline- or CGS21680-coated surfaces | bone regeneration (3 mm calvaria defect [3]): exponentially stimulates bone regeneration
